Measured values published in ChEMBL document CHEMBL1201862, “PubChem BioAssay data set” (2004).
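Method: 48-hour compound exposure of cells in 96-well plates, five concentrations, linear interpolation of endpoints. Here, GI50 denotes the concentration required for 50% inhibition of growth.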 Activity calls are given as the source filed them. No stated cut-off is given here; in the data, active = GI50 up to about 1.1 µM and inactive = higher.

What was measured:
Assay in all cases: growth of human tumour cells (NCI), 48 h
[1] = test system: 786-0
[2] = test system: A498
[3] = test system: BT-549
[4] = test system: EKVX
[5] = test system: HCC 2998
[6] = test system: HCT-116
[7] = test system: HCT-15
[8] = test system: HT-29
[9] = test system: Hs-578T
[10] = test system: M14
[11] = test system: MDA-MB-231
[12] = test system: NCI-H23
[13] = test system: NCI/ADR-RES
[14] = test system: OVCAR-3
[15] = test system: OVCAR-4
[16] = test system: OVCAR-5
[17] = test system: PC-3
[18] = test system: SF-295
[19] = test system: SK-MEL-28
[20] = test system: SK-MEL-2
[21] = test system: SK-MEL-5
[22] = test system: SK-OV-3
[23] = test system: TK-10
[24] = test system: UACC-257
[25] = test system: UO-31
[26] = test system: A549
[27] = test system: ACHN
[28] = test system: CAKI-1
[29] = test system: CCRF-CEM
[30] = test system: COLO 205
[31] = test system: DU-145
[32] = test system: HL-60
[33] = test system: HOP-62
[34] = test system: HOP-92
[35] = test system: IGROV-1
[36] = test system: K562
[37] = test system: KM12
[38] = test system: LOX IMVI
[39] = test system: MCF7
[40] = test system: MDA-MB-435
[41] = test system: MDA-N
[42] = test system: MOLT-4
[43] = test system: Malme-3M
[44] = test system: NCI-H226
[45] = test system: NCI-H460
[46] = test system: NCI-H522
[47] = test system: OVCAR-8
[48] = test system: RPMI-8226
[49] = test system: RXF 393
[50] = test system: SF-268
[51] = test system: SF-539
[52] = test system: SN12C
[53] = test system: SNB-19
[54] = test system: SNB-75
[55] = test system: SR
[56] = test system: SW-620
[57] = test system: T47D
[58] = test system: U-251
[59] = test system: UACC-62

Measured: GI50

O=C1C(O)=C(Cc2ccccc2)C(=O)c2ccccc21
inactive: [1] 61.7 µM | [2] 51.6 µM | [3] 70.8 µM | [4] 55.1 µM | [5] 83.2 µM | [6] 50.6 µM | [8] 48.9 µM | [9] 37.3 µM | [10] 34.8 µM | [11] 91.2 µM | [12] 49.1 µM | [13] 49.5 µM | [14] 27.7 µM | [15] 46.6 µM | [16] > 100 µM | [17] 54.5 µM | [18] 45.3 µM | [19] 42.3 µM | [20] 42 µM | [21] 18.7 µM | [22] 63.5 µM | [23] > 100 µM | [24] 46.8 µM | [25] 41.6 µM
35.6 µM: [7]

COc1cc(S(=O)(=O)Nc2ccc(-c3csc(N4C(=O)CSC4c4cccs4)n3)cc2)ccc1Cl (stereo unspecified)
32.6 µM: [7]
inactive: [1] 28.4 µM | [2] 43.6 µM | [26] 86.9 µM | [27] > 100 µM | [3] 23.6 µM | [28] 79.8 µM | [29] 4.98 µM | [30] 31.8 µM | [31] 22.1 µM | [4] 50.8 µM | [5] 15.6 µM | [6] 31.3 µM | [32] 14.5 µM | [33] 42.7 µM | [34] 23.7 µM | [8] 39.8 µM | [9] 30.3 µM | [35] 27.1 µM | [36] 22.6 µM | [37] 20.4 µM | [38] 18.7 µM | [10] 46.9 µM | [39] 16.4 µM | [40] 29.5 µM | [41] 29.4 µM | [42] 8.67 µM | [43] 27.9 µM | [44] 27.9 µM | [12] 31.3 µM | [45] 29.3 µM | [46] 15.9 µM | [13] > 100 µM | [14] 51.5 µM | [15] 18.4 µM | [16] > 100 µM | [47] 41.5 µM | [17] 24.9 µM | [48] 8.67 µM | [49] 11.2 µM | [50] 19.8 µM | [18] > 100 µM | [51] 25.7 µM | [19] 19.9 µM | [20] 20.5 µM | [21] 64 µM | [22] 56.4 µM | [52] 25.8 µM | [53] 33.3 µM | [54] 20.2 µM | [55] 29.7 µM | [56] 24.7 µM | [24] 20.3 µM | [25] 57.3 µM

CC(SC(=S)N1CCCCC1)C(=O)Nc1nnc(-c2ccc(Cl)cc2)o1 (stereo unspecified)
13 µM: [7]
active: [32] 0.575 µM
inactive: [1] 16.9 µM | [2] 22.9 µM | [26] 30.3 µM | [27] 30.5 µM | [3] 51.2 µM | [30] 34.9 µM | [31] 32.1 µM | [5] 34.8 µM | [6] 17.7 µM | [33] 11.8 µM | [34] 45.8 µM | [8] 23 µM | [9] 40.6 µM | [35] 32 µM | [36] 41.4 µM | [38] 23.6 µM | [10] 20.1 µM | [39] 25.8 µM | [11] 26.7 µM | [40] 34.1 µM | [43] 19.1 µM | [44] 38.5 µM | [12] 42.1 µM | [45] 27.2 µM | [13] 17.5 µM | [14] 11 µM | [15] 27.4 µM | [16] 51.8 µM | [47] 38.5 µM | [17] 24.2 µM | [48] 20.2 µM | [49] 31.6 µM | [50] 17.5 µM | [51] 58.7 µM | [19] 63.7 µM | [20] 21.7 µM | [21] 32.1 µM | [22] 21.5 µM | [52] 17.5 µM | [53] 31.4 µM | [54] 20.1 µM | [56] 36.2 µM | [57] 36.8 µM | [23] 50.6 µM | [58] 24.7 µM | [24] 37.5 µM | [59] 25.2 µM | [25] 17.8 µM

C[C@]12CC[C@@H]3c4cc(OCC(F)(F)F)c(O)cc4/C(=N/O)C[C@H]3[C@@H]1CC[C@@H]2O
inactive: [30] 16 µM | [5] 2.82 µM | [8] 3.62 µM | [15] 7 µM | [16] 12.9 µM | [17] 2.56 µM | [23] 23.7 µM
active: [2] 0.0977 µM | [26] 0.0372 µM | [3] < 0.01 µM | [28] 0.0468 µM | [29] < 0.0163 µM | [4] 0.23 µM | [34] 0.33 µM | [9] 0.0215 µM | [35] 0.147 µM | [37] 0.537 µM | [39] 0.0247 µM | [11] 0.0592 µM | [40] < 0.0126 µM | [41] 0.011 µM | [43] 0.0299 µM | [44] 0.27 µM | [14] 0.0156 µM | [50] 0.0484 µM | [51] 0.0188 µM | [20] 0.0351 µM | [21] 0.0232 µM | [22] 0.0384 µM | [52] 0.0873 µM | [53] 0.025 µM | [54] < 0.01 µM | [58] 0.026 µM | [24] 0.0509 µM

COC(=O)C1CCC(=S)N1C(C)=O (stereo unspecified)
inactive: [1] > 100 µM | [2] > 100 µM | [26] > 100 µM | [27] > 100 µM | [3] > 100 µM | [28] > 100 µM | [30] > 100 µM | [31] > 100 µM | [4] > 100 µM | [5] > 100 µM | [6] > 100 µM | [33] > 100 µM | [34] > 100 µM | [8] > 100 µM | [9] > 100 µM | [35] > 100 µM | [36] > 100 µM | [37] > 100 µM | [10] > 100 µM | [39] > 100 µM | [11] > 100 µM | [40] > 100 µM | [41] > 100 µM | [42] > 100 µM | [43] > 100 µM | [12] > 100 µM | [45] > 100 µM | [46] > 100 µM | [13] > 100 µM | [14] > 100 µM | [15] > 100 µM | [16] > 100 µM | [47] > 100 µM | [17] > 100 µM | [48] > 100 µM | [49] > 100 µM | [50] > 100 µM | [18] > 100 µM | [19] > 100 µM | [20] > 100 µM | [21] > 100 µM | [22] > 100 µM | [53] > 100 µM | [54] > 100 µM | [56] > 100 µM | [23] > 100 µM | [58] > 100 µM | [24] > 100 µM | [59] > 100 µM | [25] > 100 µM
> 100 µM: [7]

O=C(Nc1ccccc1)c1cc2cc(CCl)ccc2oc1=O
> 100 µM: [7]
inactive: [1] 48.8 µM | [2] 13 µM | [26] 99.3 µM | [27] 17 µM | [3] > 100 µM | [28] > 100 µM | [29] > 100 µM | [30] > 100 µM | [31] > 100 µM | [4] > 100 µM | [5] > 100 µM | [6] > 100 µM | [32] 41.6 µM | [33] 81.7 µM | [34] > 100 µM | [8] 8.57 µM | [9] 15 µM | [35] > 100 µM | [36] 62.2 µM | [37] > 100 µM | [38] > 100 µM | [10] > 100 µM | [39] 26.4 µM | [11] 64.1 µM | [40] > 100 µM | [42] > 100 µM | [43] > 100 µM | [44] > 100 µM | [12] 16.5 µM | [45] > 100 µM | [46] 70.3 µM | [13] > 100 µM | [14] > 100 µM | [15] > 100 µM | [16] > 100 µM | [47] > 100 µM | [17] > 100 µM | [48] > 100 µM | [49] 33.4 µM | [50] 47 µM | [18] 45.5 µM | [19] > 100 µM | [20] 4.8 µM | [21] > 100 µM | [22] > 100 µM | [52] > 100 µM | [53] 80.4 µM | [54] 34.7 µM | [55] 41.5 µM | [56] > 100 µM | [57] > 100 µM | [23] 39.8 µM | [58] 47 µM | [24] > 100 µM | [59] 16.6 µM | [25] > 100 µM
